Measured values taken from US9598421B2, “Imidazopyridazine compounds” (Pfizer Inc., priority 2014, dated 2017).
Where two headings read alike, the source gives them in different places.

Experiments:
Type in all cases: biochemical
[1] = molecular target: Human PDE4D (Homo sapiens (Human), UniProt Q08499); assay: PDE4D Scintillation Proximity Assay (SPA), inhibition of enzyme activity; conditions: read-out: Human PDE4D FL
[2] = molecular target: Human PDE4A (Homo sapiens (Human), UniProt P27815); assay: PDE4A Scintillation Proximity Assay (SPA), inhibition of enzyme activity; conditions: read-out: Human PDE4A FL
Procedure: (§1) The PDE4A3, PDE4B1, PDE4C1 and PDE4D3 assays use the Scintillation Proximity Assay (SPA) technology to measure the inhibition of human recombinant PDE4A1, PDE4B3, PDE4C1, and PDE4D3 enzyme activity by compounds in vitro. The PDE4A1, PDE4B3, PDE4C1, and PDE4D3 assays are run in parallel using identical parameters, except for the concentration of enzyme (80 pM PDE4A3, 40 pM PDE4B3, 40 pM PDE4C1 and 10 pM PDE4D). […] Reactions are incubated for 30 min at 25° C. The addition of 20 uL of 8 mg/ml yitrium silicate SPA beads (Perkin Elmer) stops the reaction. The plates are sealed (TopSeal, Perkin Elmer) and the beads are allowed to settle for 8 hrs, after which they are read on the Trilux Microbeta overnight.

[3] = molecular target: Human PDE4C (Homo sapiens (Human), UniProt Q08493); assay: PDE4C Scintillation Proximity Assay (SPA), inhibition of enzyme activity; conditions: read-out: Human PDE4C FL
Procedure: as §1

[4] = human recombinant enzyme, 1 μM cAMP substrate, 30 min at 25° C., geometric mean of 2-9 determinations unless otherwise indicated

Human PDE4D, sequence (Q08499 186-808): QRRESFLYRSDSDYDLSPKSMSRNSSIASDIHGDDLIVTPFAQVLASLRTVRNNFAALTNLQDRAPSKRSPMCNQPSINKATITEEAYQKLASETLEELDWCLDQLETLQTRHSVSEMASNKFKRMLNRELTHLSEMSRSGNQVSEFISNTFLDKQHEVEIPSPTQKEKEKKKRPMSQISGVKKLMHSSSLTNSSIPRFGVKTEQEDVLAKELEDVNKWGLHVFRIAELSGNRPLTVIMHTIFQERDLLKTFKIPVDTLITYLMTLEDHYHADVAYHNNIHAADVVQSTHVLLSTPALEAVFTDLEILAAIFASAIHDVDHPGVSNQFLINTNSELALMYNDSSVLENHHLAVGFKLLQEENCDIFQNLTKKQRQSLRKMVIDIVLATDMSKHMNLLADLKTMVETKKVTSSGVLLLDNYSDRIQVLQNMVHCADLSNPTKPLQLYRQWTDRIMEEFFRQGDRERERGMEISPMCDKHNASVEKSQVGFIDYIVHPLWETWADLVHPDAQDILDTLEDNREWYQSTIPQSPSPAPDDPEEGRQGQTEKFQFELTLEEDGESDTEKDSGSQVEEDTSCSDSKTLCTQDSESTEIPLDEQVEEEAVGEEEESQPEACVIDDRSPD
Human PDE4A, sequence (P27815 other isoform, or with tags, fused parts or gaps): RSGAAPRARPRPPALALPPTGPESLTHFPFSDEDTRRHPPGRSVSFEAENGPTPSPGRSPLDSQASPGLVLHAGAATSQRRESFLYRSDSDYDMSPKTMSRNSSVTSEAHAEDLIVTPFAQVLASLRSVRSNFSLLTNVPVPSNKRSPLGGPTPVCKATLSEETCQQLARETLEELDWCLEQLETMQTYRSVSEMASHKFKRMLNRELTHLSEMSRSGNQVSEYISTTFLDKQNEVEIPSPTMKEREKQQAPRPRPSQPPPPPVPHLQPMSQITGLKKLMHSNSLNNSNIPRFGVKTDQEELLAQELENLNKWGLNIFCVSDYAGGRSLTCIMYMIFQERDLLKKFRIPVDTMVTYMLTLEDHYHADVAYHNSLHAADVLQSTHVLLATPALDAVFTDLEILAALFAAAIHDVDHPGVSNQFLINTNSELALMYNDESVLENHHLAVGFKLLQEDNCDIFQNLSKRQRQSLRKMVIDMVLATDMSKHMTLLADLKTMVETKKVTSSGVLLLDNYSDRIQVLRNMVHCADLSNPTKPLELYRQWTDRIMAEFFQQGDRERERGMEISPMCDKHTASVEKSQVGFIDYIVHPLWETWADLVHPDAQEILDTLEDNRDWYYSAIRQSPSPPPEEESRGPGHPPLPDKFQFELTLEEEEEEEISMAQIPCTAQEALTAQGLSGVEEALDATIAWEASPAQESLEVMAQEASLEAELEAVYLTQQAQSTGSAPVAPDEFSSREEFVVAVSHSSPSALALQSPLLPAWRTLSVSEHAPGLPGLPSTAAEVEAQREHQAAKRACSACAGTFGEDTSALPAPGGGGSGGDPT
Human PDE4C, sequence (Q08493 2-712): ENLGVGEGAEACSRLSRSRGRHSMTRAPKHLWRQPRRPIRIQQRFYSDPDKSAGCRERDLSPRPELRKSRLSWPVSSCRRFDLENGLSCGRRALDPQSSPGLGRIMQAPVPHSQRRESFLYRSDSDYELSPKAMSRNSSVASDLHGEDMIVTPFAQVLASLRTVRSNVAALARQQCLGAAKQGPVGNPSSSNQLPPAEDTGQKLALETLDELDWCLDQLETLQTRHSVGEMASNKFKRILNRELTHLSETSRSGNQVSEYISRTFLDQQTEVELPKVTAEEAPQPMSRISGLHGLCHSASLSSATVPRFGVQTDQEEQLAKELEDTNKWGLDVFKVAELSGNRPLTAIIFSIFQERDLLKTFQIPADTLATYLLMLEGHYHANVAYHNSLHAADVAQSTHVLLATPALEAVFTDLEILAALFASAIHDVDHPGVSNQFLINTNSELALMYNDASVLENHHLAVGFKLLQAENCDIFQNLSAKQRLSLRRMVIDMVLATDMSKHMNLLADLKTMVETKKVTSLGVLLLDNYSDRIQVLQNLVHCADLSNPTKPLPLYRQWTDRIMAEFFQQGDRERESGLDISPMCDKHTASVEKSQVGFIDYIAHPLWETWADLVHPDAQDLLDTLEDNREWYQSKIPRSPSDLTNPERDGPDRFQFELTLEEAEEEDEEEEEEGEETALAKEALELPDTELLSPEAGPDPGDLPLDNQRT

`O=C(NC1CC1)c1nc2cccnn2c1-c1cc(F)c(Cl)cc1F` [Example 9, 3-(4-Chloro-2,5-difluorophenyl)-N-cyclopropylimidazo[1,2-b]pyridazine-2-carboxamide] showed an IC50 [1, 4] of 1.49 µM, an IC50 [2, 4] of 0.00383 µM and an IC50 [3, 4] of 0.0409 µM.
`N#Cc1ccc(-c2c(C(=O)NC3CC3)nc3cccnn23)cc1F` [Example 90, 3-(4-cyano-3-fluorophenyl)-N-cyclopropylimidazo[1,2-b]pyridazine-2-carboxamide] was tested, and the IC50 [1, 4] was 2.62 µM, the IC50 [2, 4] was 0.0214 µM and the IC50 [3, 4] was 0.0255 µM.
`N#Cc1ccc(-c2c(C(=O)NC3CC3)nc3cccnn23)cn1` [Example 5, 3-(6-Cyanopyridin-3-yl)-N-cyclopropylimidazo[1,2-b]pyridazine-2-carboxamide] was tested, and the IC50 [1] was > 26.6 µM, the IC50 [2, 4] was 0.0402 µM and the IC50 [3, 4] was 0.208 µM.
`CNC(=O)c1nc2cccnn2c1-c1ccc(Cl)c(F)c1` [Example 94, 3-(4-chloro-3-fluorophenyl)-N-methylimidazo[1,2-b]pyridazine-2-carboxamide] gave an IC50 [1, 4] of 5.38 µM, an IC50 [2, 4] of 0.0249 µM and an IC50 [3, 4] of 0.065 µM.
`O=C(NC1CC1)c1nc2cccnn2c1-c1ccc(Cl)cc1` [Example 2, 3-(4-Chlorophenyl)-N-cyclopropylimidazo[1,2-b]pyridazine-2-carboxamide] showed an IC50 [1] of 4.34 µM, an IC50 [2] of 0.0107 µM and an IC50 [3] of 0.0279 µM.
Compound `O=C(c1nc2cccnn2c1-c1ccc(Cl)cc1)N1CC(F)(F)C1` [Example 61, [3-(4-chlorophenyl)imidazo[1,2-b]pyridazin-2-yl](3,3-difluoroazetidin-1-yl)methanone] has an IC50 [1, 4] of 1.93 µM, an IC50 [2, 4] of 0.144 µM and an IC50 [3, 4] of 0.126 µM.
With `N#Cc1cc(F)c(-c2c(C(=O)N3CCC3)nc3cccnn23)cc1F` [Example 24, 4-[2-(azetidin-1-ylcarbonyl)imidazo[1,2-b]pyridazin-3-yl]-2,5-difluorobenzonitrile] the IC50 [1, 4] was > 2.15 µM, the IC50 [2, 4] was 0.00504 µM and the IC50 [3, 4] was 0.0597 µM.
For `O=C(c1nc2cccnn2c1-c1cc(F)c(Cl)c(F)c1)N1CCC1` [Example 47, azetidin-1-yl[3-(4-chloro-3,5-difluorophenyl)imidazo[1,2-b]pyridazin-2-yl]methanone], the IC50 [1, 4] was 0.334 µM, the IC50 [2, 4] was 0.00737 µM and the IC50 [3, 4] was 0.0239 µM.
`O=C(NC1CC1)c1nc2cccnn2c1-c1ccc(OC(F)F)nc1` [Example 87, N-cyclopropyl-3-[6-(difluoromethoxy)pyridin-3-yl]imidazo[1,2-b]pyridazine-2-carboxamide] was tested, and the IC50 [1, 4] was 6.79 µM, the IC50 [2, 4] was 0.24 µM and the IC50 [3, 4] was 0.397 µM.
Compound `CCNC(=O)c1nc2cccnn2c1-c1cc(F)c(C#N)cc1C` [Example 98, 3-(4-cyano-5-fluoro-2-methylphenyl)-N-ethylimidazo[1,2-b]pyridazine-2-carboxamide] has an IC50 [1, 4] of 3.32 µM, an IC50 [2, 4] of 0.0266 µM and an IC50 [3, 4] of 0.107 µM.
In the case of `Cc1cc2ncnn2cc1-c1c(C(=O)NC2CC2)nc2cccnn12` [Example 89, N-cyclopropyl-3-(7-methyl[1,2,4]triazolo[1,5-a]pyridin-6-yl)imidazo[1,2-b]pyridazine-2-carboxamide], the IC50 [1, 4] is reported as > 17.2 µM, the IC50 [2, 4] is reported as 0.829 µM and the IC50 [3, 4] is reported as 3.76 µM.
`O=C(c1nc2cccnn2c1-c1ccc(Cl)c(F)c1)N1CCC1` [Example 13, azetidin-1-yl[3-(4-chloro-3-fluorophenyl)imidazo[1,2-b]pyridazin-2-yl]methanone] gave an IC50 [1, 4] of 0.669 µM, an IC50 [2, 4] of 0.00513 µM and an IC50 [3, 4] of 0.0173 µM.
In the case of `Cc1cc(Cl)ccc1-c1c(C(=O)NC2CC2)nc2cccnn12` [Example 12, 3-(4-chloro-2-methylphenyl)-N-cyclopropylimidazo[1,2-b]pyridazine-2-carboxamide], the IC50 [1, 4] is reported as 5.22 µM, the IC50 [2, 4] is reported as 0.0144 µM and the IC50 [3, 4] is reported as 0.0896 µM.
In the case of `O=C(NC1CC1)c1nc2cccnn2c1-c1cccc(Cl)c1` [Example 36, 3-(3-chlorophenyl)-N-cyclopropylimidazo[1,2-b]pyridazine-2-carboxamide], the IC50 [1, 4] is reported as 0.254 µM, the IC50 [2, 4] is reported as 0.0237 µM and the IC50 [3, 4] is reported as 0.021 µM.
In the case of `CN(C(=O)c1nc2cccnn2c1-c1ccc(Cl)cc1)C1CC1` [Example 32, 3-(4-chlorophenyl)-N-cyclopropyl-N-methylimidazo[1,2-b]pyridazine-2-carboxamide], the IC50 [1, 4] is reported as > 30 µM, the IC50 [2, 4] is reported as 1.03 µM and the IC50 [3, 4] is reported as 0.469 µM.
For `O=C(Nc1ncccn1)c1nc2cccnn2c1-c1ccc(Cl)cc1` [Example 101, 3-(4-chlorophenyl)-N-(pyrimidin-2-yl)imidazo[1,2-b]pyridazine-2-carboxamide], the IC50 [1, 4] was > 25.9 µM, the IC50 [2, 4] was 0.268 µM and the IC50 [3, 4] was 1.18 µM.
`CCCNC(=O)c1nc2cccnn2c1-c1ccc(Cl)c(F)c1` [Example 29, 3-(4-chloro-3-fluorophenyl)-N-propylimidazo[1,2-b]pyridazine-2-carboxamide] gave an IC50 [1, 4] of 0.409 µM, an IC50 [2, 4] of 0.00348 µM and an IC50 [3, 4] of 0.0138 µM.
For `O=C(c1nc2cccnn2c1-c1ccc(Cl)cc1)N1CC(F)C1` [Example 60, [3-(4-chlorophenyl)imidazo[1,2-b]pyridazin-2-yl](3-fluoroazetidin-1-yl)methanone], the IC50 [1, 4] was > 4.93 µM, the IC50 [2, 4] was 0.269 µM and the IC50 [3, 4] was 0.287 µM.
In the case of `O=C(NC1CC1)c1nc2cccnn2c1-c1ccc2ocnc2c1` [Example 39, 3-(1,3-benzoxazol-5-yl)-N-cyclopropylimidazo[1,2-b]pyridazine-2-carboxamide], the IC50 [1, 4] is reported as 3.82 µM, the IC50 [2, 4] is reported as 0.0148 µM and the IC50 [3, 4] is reported as 0.0678 µM.
`CNC(=O)c1nc2cccnn2c1-c1cc(F)c(Cl)cc1C` [Example 25, 3-(4-chloro-5-fluoro-2-methylphenyl)-N-methylimidazo[1,2-b]pyridazine-2-carboxamide] was tested, and the IC50 [1, 4] was 4.97 µM, the IC50 [2, 4] was 0.0386 µM and the IC50 [3, 4] was 0.15 µM.
For `Cc1ccc(-c2c(C(=O)N3CCC3)nc3cccnn23)c(F)c1` [Example 54, azetidin-1-yl[3-(2-fluoro-4-methylphenyl)imidazo[1,2-b]pyridazin-2-yl]methanone], the IC50 [1, 4] was > 20 µM, the IC50 [2, 4] was 0.103 µM and the IC50 [3, 4] was 0.136 µM.
`O=C(c1nc2cccnn2c1-c1ccc(Cl)c(Cl)c1)N1CCC1` [Example 83, azetidin-1-yl[3-(3,4-dichlorophenyl)imidazo[1,2-b]pyridazin-2-yl]methanone] showed an IC50 [1, 4] of 0.495 µM, an IC50 [2, 4] of 0.00621 µM and an IC50 [3, 4] of 0.04 µM.
With `O=C(c1nc2cccnn2c1-c1ccc2c(c1)CCO2)N1CCC1` [Example 50, azetidin-1-yl[3-(2,3-dihydro-1-benzofuran-5-yl)imidazo[1,2-b]pyridazin-2-yl]methanone] the IC50 [1, 4] was 3.14 µM, the IC50 [2, 4] was 0.0281 µM and the IC50 [3, 4] was 0.235 µM.
`O=C(c1nc2cccnn2c1-c1ccc(Cl)cc1F)N1CCC1` [Example 52, azetidin-1-yl[3-(4-chloro-2-fluorophenyl)imidazo[1,2-b]pyridazin-2-yl]methanone] gave an IC50 [1, 4] of 5.51 µM, an IC50 [2, 4] of 0.0243 µM and an IC50 [3, 4] of 0.113 µM.
`Cc1cc(-c2c(C(=O)N3CCC3)nc3cccnn23)c(F)cc1C#N` [Example 18, 4-[2-(azetidin-1-ylcarbonyl)imidazo[1,2-b]pyridazin-3-yl]-5-fluoro-2-methylbenzonitrile] gave an IC50 [1, 4] of 8.2 µM, an IC50 [2, 4] of 0.055 µM and an IC50 [3, 4] of 0.147 µM.
For `COC1CN(C(=O)c2nc3cccnn3c2-c2ccc(Cl)cc2)C1` [Example 31, [3-(4-chlorophenyl)imidazo[1,2-b]pyridazin-2-yl](3-methoxyazetidin-1-yl)methanone], the IC50 [1, 4] was < 26.2 µM, the IC50 [2, 4] was 2.82 µM and the IC50 [3, 4] was 5.81 µM.
`O=C(NC12CC(C1)C2)c1nc2cccnn2c1-c1ccc(Cl)cc1` [Example 37, N-(bicyclo[1.1.1]pent-1-yl)-3-(4-chlorophenyl)imidazo[1,2-b]pyridazine-2-carboxamide] was tested, and the IC50 [1, 4] was 2.57 µM, the IC50 [2, 4] was 0.127 µM and the IC50 [3, 4] was 0.161 µM.
